Data taken from patent US20240182413A1, “INSECTICIDAL COMPOUNDS” (Pluton Biosciences, Inc., priority 2022, published 2024).
Values after ≈ are worked out from the molar mass of the structure shown. Values joined by “and” are separate entries in the source; they are usually repeats but may differ in a detail not shown here. Equal values may be shown once. Read-outs that look alike come from different tables or passages of the source.

Experiments:
[1] = test system: Spodoptera frugiperda (fall armyworm) first instar larvae; test: Spodoptera frugiperda killing assay (diet-surface overlay); assay type: in vivo
Method: Insect killing assays. Each compound was dissolved in dimethyl sulfoxide (DMSO). Killing dose curves were constructed for each compound by producing a two-fold dilution series of the compound (e.g., comprising approximately 16 serial dilutions of a stock for 3,3′-diindolylmethane and 3-((1H-Indol-2-yl)methyl)-1H-indole and comprising approximately 12 serial dilutions of a stock for 3,3′-diindolyl and 3,3′-(pyridin-4-ylmethylene)bis(1H-indole)). Dilutions were made in sterile NYSM broth as described above. The two-fold dilution series were tested in a killing bioassay as described below. Data were collected to construct a dose curve and determine the half-maximal lethal concentration (LC50) value.
Bioassays were performed using first instar larvae of the Lepidopteran species Spodoptera frugiperda (fall armyworm), with an N=16 for each concentration of compound tested. S. frugiperda larvae were purchased from Benzon Research, Inc. (Carlisle, PA). A diet-surface overlay format was used in which 1 milliliter of standard lepidopteran diet was placed in each well. One hundred microliters of sample were pipetted into each well and allowed to dry. A DMSO control was included with each set of samples.
During the development of embodiments of the technology described herein, experiments were conducted to test the killing of arundine against a panel of 11 insect species. […] Briefly, arundine was dissolved in dimethyl sulfoxide (DMSO). Killing dose curves were constructed by producing a two-fold dilution series of arundine. Dilutions were made in sterile NYSM as described. The two-fold dilution series were tested in a killing bioassay performed using first instar larvae of the species listed in Table 4, with an N=16 for each concentration of compound tested. A diet-surface overlay format was used in which 1 milliliter of standard lepidopteran diet was placed in each well. One hundred microliters of sample were pipetted into each well and allowed to dry. A DMSO control was included with each set of samples. […] Data were collected to construct a dose curve and determine the half-maximal lethal concentration (LC50) value.

Cry1Fa resistant FAW = test: Killing of Cry1Fa resistant fall armyworm; assay type: in vivo, Spodoptera frugiperda; conditions: 1000 ppm BIM compound, 20 μl on diet surface; Cry1 FAW neonates; 5-7 days
Method: During the development of embodiments of the technology provided herein, experiments were conducted to test the killing potency of arundine-derived BIM compounds against strains of fall armyworm (FAW) that are resistant to Bacillus thuringiensis (Bt) insecticidal proteins (e.g., Cry1Fa and Vip3A). Susceptible FAW (Spodoptera frugiperda) was obtained from Benzon Research Inc, Lancaster, PA. Cry1Fa resistant FAW originating from Puerto Rico was reared in a facility by Genective (Weldon, IL). Vip3A resistant FAW originating from southern US was reared in a facility by Genective (Weldon, IL).
FAW eggs were incubated at approximately 26° C. at 50% relative humidity until eclosion (approximately 3 days) and the hatch was timed to within 12 hours of infesting the diet plates. BIM compounds were obtained from frozen stocks, thawed, suspended in 5% DMSO along with NYSM buffer to provide a solution of 2000 ppm BIM compound in a total volume of 1.0 ml, and stored at −20° C. For testing, a single tube of each BIM compound sample was thawed at 4° C. NYSM buffer was warmed to room temperature. A volume of 750 μl. NYSM buffer was added to 750 μl from each 1.0-ml volume to prepare samples of 1.5 ml BIM compound at 1000 ppm for testing. A total of three BIM preparations per BIM molecule were prepared and tested for killing potency. Compounds tested were BIM-1, 11, 25, 26, 28, 29, 30, 32, 34. A solution of 5% DMSO in NYSM buffer was used as a negative control.
A standard commercially available semi-solid lepidopteran diet was prepared following manufacturer's instructions (Frontier, multi-species diet). […] LB+Kanamycin (antibiotic) growth media is the negative control for bacterial cultures. Cry1Fa is a positive control prepared as E. coli cells expressing the full-length Cry1Fa protein resuspended in PBS buffer at half the volume of the original growth culture resulting in 2× concentration of cells. Vip3A is a positive control prepared as E. coli whole cell culture expressing Vip3A.
For each of 3 replicates, 200 μl of diet was prepared in wells of a 96-well plate and the diet plates were warmed to room temperature prior to dispensing samples. After 750 μl NYSM buffer was added to 750 μl from each 1.0-ml volume to prepare samples of 1.5 ml BIM compound at 1000 ppm for testing, BIM solutions were vortexed and 20 μl were dispensed onto the diet surface in each of 16 wells using a repeating pipettor. These steps were repeated for each sample and control for each insect population being tested. BIM compound and control solutions were allowed to absorb into the diet in a biosafety hood until the diet surface was visibly dry. Once dry, wells were sealed with a clear membrane. Two pin holes were poked through the membrane in each well to maintain appropriate humidity level and aeration. Each well was infested with a single neonate larva, and the wells were resealed with perforated membrane to prevent escape. The infested plates were incubated in environmental chambers at 26° C. and 50% relative humidity for 5-7 days. All bioassays were assessed visually to record larval mortality and growth inhibition.

Aedes aegypti larvae = test: Aedes aegypti killing assay (larval bioassay, two-fold dilution series); assay type: in vivo
Method: Insect killing assays. Each compound was dissolved in dimethyl sulfoxide (DMSO). Killing dose curves were constructed for each compound by producing a two-fold dilution series for each compound (e.g., comprising approximately 20 serial dilutions of a stock). Dilutions were made in sterile nutrient yeast extract salt medium (NYSM) broth. The NYSM contained 8 g/L nutrient broth powder, 0.5 g/L yeast extract, 1 mM MgCl2, 700 μM CaCl2, and 50 μM MnCl2 in water. The two-fold dilution series were tested in a killing bioassay as described below. Data were collected to construct a dose curve and determine the half-maximal lethal concentration (LC50) value.
Bioassays were performed using second or third instar Aedes aegypti larvae, with biological replication. Ae. aegpyti larvae were purchased from Benzon Research, Inc. (Carlisle, PA). Larvae were washed with sterile water before transfer to 24-well assay plates containing 1 mL of sterile water in each well. Each well contained 5 larvae. The final DMSO concentration in each assay well was 1%. Larval mortality was scored for each well at 24-hour timepoints after application. […] In Table 1, mean mortalities and standard deviations were calculated from at least three independent biological replicates. […] LC50 values were calculated using GraphPad Prism software.

[2] = Spodoptera frugiperda, first instar larvae, calculated from killing dose curves FIG. 3D to 3NN, read-out: LD50 (the source's name)
[3] = first instar larvae, calculated from killing dose curves FIG. 3D to 3NN, read-out: LD50 (the source's name)

| Structure (SMILES) | LC50 [1, 2] | also measured |
| --- | --- | --- |
| Brc1ccc2c(Cc3c[nH]c4cc(Br)ccc34)c[nH]c2c1 [BIM-14] | 934 µM | – |
| Ic1ccc2c(Cc3c[nH]c4cc(I)ccc34)c[nH]c2c1 [BIM-15] | > 10000 µM | – |
| N#Cc1ccc2c(Cc3c[nH]c4cc(C#N)ccc34)c[nH]c2c1 [BIM-17] | > 10000 µM | – |
| O=[N+]([O-])c1ccc2c(Cc3c[nH]c4cc([N+](=O)[O-])ccc34)c[nH]c2c1 [BIM-18] | – | LC50 ([1]; Spodoptera frugiperda, read-out: LD50 (μM)): > 10000 µM |
| Cc1ccc2c(Cc3c[nH]c4cc(C)ccc34)c[nH]c2c1 [BIM-19] | 1410 µM | – |
| COc1ccc2c(Cc3c[nH]c4cc(OC)ccc34)c[nH]c2c1 [BIM-20] | – | LC50 [1, 3]: >3000 µM |
| FC(F)(F)c1ccc2c(Cc3c[nH]c4cc(C(F)(F)F)ccc34)c[nH]c2c1 [BIM-21] | 974 µM | – |
| CC(c1c[nH]c2cc(Cl)ccc12)c1c[nH]c2cc(Cl)ccc12 [BIM-22] | < 3000 µM | – |
| CCC(c1c[nH]c2cc(Cl)ccc12)c1c[nH]c2cc(Cl)ccc12 [BIM-23] | 1350 µM | – |
| CCCC(c1c[nH]c2cc(Cl)ccc12)c1c[nH]c2cc(Cl)ccc12 [BIM-24] | 678 µM | – |
| c1ccc2c(C(CCCC(c3c[nH]c4ccccc34)c3c[nH]c4ccccc34)c3c[nH]c4ccccc34)c[nH]c2c1 [BIM-27] | > 5000 µM | – |
| Clc1ccc2c(C(c3ccc(Br)cc3)c3c[nH]c4cc(Cl)ccc34)c[nH]c2c1 [BIM-28] | 371 µM | lethality (Cry1Fa resistant FAW): 100% |
| Cc1ccc(C(c2c[nH]c3cc(Cl)ccc23)c2c[nH]c3cc(Cl)ccc23)cc1 [BIM-29] | – | LC50 [1, 3]: 611 µM; lethality (Cry1Fa resistant FAW): 100% |
| Clc1ccc(C(c2c[nH]c3cc(Cl)ccc23)c2c[nH]c3cc(Cl)ccc23)cc1 [BIM-33] | 485 µM | – |
| Clc1ccc2c(C(c3ccccc3Br)c3c[nH]c4cc(Cl)ccc34)c[nH]c2c1 [BIM-34] | 352 µM | lethality (Cry1Fa resistant FAW): 100% |
| Clc1ccc2c(C(c3cccc(Br)c3)c3c[nH]c4cc(Cl)ccc34)c[nH]c2c1 [BIM-35] | 429 µM | – |
| Clc1ccc2c(Cc3c[nH]c4ccccc34)c[nH]c2c1 [BIM-36] | – | LC50 [1, 3]: 2457 µM |
| Clc1ccc2c(C(c3ccc(Br)cc3)c3c[nH]c4ccccc34)c[nH]c2c1 (centres unmarked) [BIM-37 R/S 1:1] | – | LC50 [1, 3]: 725 µM |
| Clc1ccc2c(C(c3ccc(Br)cc3)c3c[nH]c4ccccc34)c[nH]c2c1 (centres unmarked) [BIM-37 R/S 3:1] | – | LC50 [1, 3]: 576 µM |
| CN(C)Cc1c[nH]c2ccccc12 [gramine] | – | LC50 (Aedes aegypti larvae; Aedes aegypti, 72 h): 189 µg/mL and 1.08 mM |
| OCc1c[nH]c2ccccc12 [indole-3-carbinol] | – | LC50 (Aedes aegypti larvae; in vivo): 453 ± 307 µM; LC50 (μg/mL) (Aedes aegypti larvae; in vivo): 66.7 ± 45.2 µg/mL (≈ 453 µM) |
| c1ccc2[nH]ccc2c1 [indole] | – | LC50 (Aedes aegypti larvae; Aedes aegypti, 72 h): 40.2 µg/mL and 344 µM |
